Data taken from ChEMBL document CHEMBL3392983, “Synthesis, antimicrobial activity and molecular docking of novel tetracyclic scaffolds incorporating a flavonoid framework with medium sized oxygen heterocycles” (2015).
In brackets after ≈: the same amount, converted by molar mass.

system: Escherichia coli; assay: Bactericidal activity against Escherichia coli ATCC 10536 assessed as microbial killing during 18 hrs post sub-culture onto drug-free solid media by broth dilution method; assay type: functional; settings: ATCC 10536, 18 h, read-out: MBC99.9

Structure (SMILES)	MBC
O=c1c2c(oc3ccc(F)cc13)-c1ccccc1OCCCO2	0.096 µM (≈ 0.03 µg/mL)
O=c1c2c(oc3ccc(Cl)cc13)-c1ccccc1OCCCO2	0.03 µM (≈ 0.00986 µg/mL)
O=c1c2c(oc3ccc(Cl)cc13)-c1ccccc1OCCCCO2	0.028 µM (≈ 0.0096 µg/mL)
O=c1c2c(oc3ccc(F)cc13)-c1ccccc1OCCCCCO2	0.074 µM (≈ 0.0252 µg/mL)
O=c1c2c(oc3ccccc13)-c1ccccc1OCCCCCO2	0.059 µM (≈ 0.019 µg/mL)

system: Staphylococcus aureus; assay: Bactericidal activity against Staphylococcus aureus ATCC 25923 assessed as microbial killing during 18 hrs post sub-culture onto drug-free solid media by broth dilution method; assay type: functional; settings: ATCC 25923, 18 h, read-out: MBC99.9

Structure (SMILES)	MBC
O=c1c2c(oc3ccc(F)cc13)-c1ccccc1OCCCO2	0.116 µM (≈ 0.0362 µg/mL)
O=c1c2c(oc3ccc(Cl)cc13)-c1ccccc1OCCCO2	0.051 µM (≈ 0.0168 µg/mL)
O=c1c2c(oc3ccc(Cl)cc13)-c1ccccc1OCCCCO2	0.154 µM (≈ 0.0528 µg/mL)
O=c1c2c(oc3ccc(F)cc13)-c1ccccc1OCCCCCO2	0.11 µM (≈ 0.0374 µg/mL)
O=c1c2c(oc3ccccc13)-c1ccccc1OCCCCCO2	0.154 µM (≈ 0.0496 µg/mL)

system: Pseudomonas aeruginosa; assay: Bactericidal activity against Pseudomonas aeruginosa ATCC 10145 assessed as microbial killing during 18 hrs post sub-culture onto drug-free solid media by broth dilution method; assay type: functional; settings: ATCC 10145, 18 h, read-out: MBC99.9

Structure (SMILES)	MBC
O=c1c2c(oc3ccc(F)cc13)-c1ccccc1OCCCO2	0.032 µM (≈ 0.00999 µg/mL)
O=c1c2c(oc3ccc(Cl)cc13)-c1ccccc1OCCCO2	0.03 µM (≈ 0.00986 µg/mL)
O=c1c2c(oc3ccc(Cl)cc13)-c1ccccc1OCCCCO2	0.058 µM (≈ 0.0199 µg/mL)
O=c1c2c(oc3ccc(F)cc13)-c1ccccc1OCCCCCO2	0.035 µM (≈ 0.0119 µg/mL)
O=c1c2c(oc3ccccc13)-c1ccccc1OCCCCCO2	0.089 µM (≈ 0.0287 µg/mL)

system: Escherichia coli; assay: Antimicrobial activity against Escherichia coli ATCC 10536 assessed as inhibition of microbial growth incubated for 24 hrs by broth dilution method; assay type: functional; settings: ATCC 10536, 24 h

Structure (SMILES)	MIC
O=c1c2c(oc3ccc(F)cc13)-c1ccccc1OCCCO2	0.16 µM
O=c1c2c(oc3ccc(Cl)cc13)-c1ccccc1OCCCO2	0.045 µM
O=c1c2c(oc3ccc(F)cc13)-c1ccccc1OCCCCCO2	0.102 µM

Further molecules by falling MIC, results first:

MIC	Structure (SMILES)
0.063 µM	O=c1c2c(oc3ccccc13)-c1ccccc1OCCCCCO2
0.029 µM	O=c1c2c(oc3ccc(Cl)cc13)-c1ccccc1OCCCCO2

system: Staphylococcus aureus; assay: Antimicrobial activity against Staphylococcus aureus ATCC 25923 assessed as inhibition of microbial growth incubated for 24 hrs by broth dilution method; assay type: functional; settings: ATCC 25923, 24 h

Structure (SMILES)	MIC
O=c1c2c(oc3ccc(F)cc13)-c1ccccc1OCCCO2	0.129 µM
O=c1c2c(oc3ccc(Cl)cc13)-c1ccccc1OCCCO2	0.092 µM
O=c1c2c(oc3ccc(F)cc13)-c1ccccc1OCCCCCO2	0.132 µM

Other lines, results leading:

MIC	Structure (SMILES)
0.155 µM	O=c1c2c(oc3ccccc13)-c1ccccc1OCCCCCO2
0.204 µM	O=c1c2c(oc3ccc(Cl)cc13)-c1ccccc1OCCCCO2

system: Pseudomonas aeruginosa; assay: Antimicrobial activity against Pseudomonas aeruginosa ATCC 10145 assessed as inhibition of microbial growth incubated for 24 hrs by broth dilution method; assay type: functional; settings: ATCC 10145, 24 h

Structure (SMILES)	MIC
O=c1c2c(oc3ccc(F)cc13)-c1ccccc1OCCCO2	0.064 µM
O=c1c2c(oc3ccc(Cl)cc13)-c1ccccc1OCCCO2	0.06 µM
O=c1c2c(oc3ccc(F)cc13)-c1ccccc1OCCCCCO2	0.073 µM

Now from value to molecule:

MIC	Structure (SMILES)
0.062 µM	O=c1c2c(oc3ccccc13)-c1ccccc1OCCCCCO2
0.146 µM	O=c1c2c(oc3ccc(Cl)cc13)-c1ccccc1OCCCCO2

system: Candida tropicalis; assay: Antimicrobial activity against Candida tropicalis ATCC 750 assessed as inhibition of microbial growth incubated for 72 hrs by broth dilution method; assay type: functional; settings: ATCC 750, 72 h

Structure (SMILES)	MIC
O=c1c2c(oc3ccc(F)cc13)-c1ccccc1OCCCO2	> 0.641 µM
O=c1c2c(oc3ccc(Cl)cc13)-c1ccccc1OCCCO2	> 0.609 µM
O=c1c2c(oc3ccc(F)cc13)-c1ccccc1OCCCCCO2	> 0.588 µM

The remaining lines, values ahead:

MIC	Structure (SMILES)
> 0.621 µM	O=c1c2c(oc3ccccc13)-c1ccccc1OCCCCCO2
> 0.584 µM	O=c1c2c(oc3ccc(Cl)cc13)-c1ccccc1OCCCCO2

system: Bacillus subtilis; assay: Bactericidal activity against Bacillus subtilis ATCC 6633 assessed as microbial killing during 18 hrs post sub-culture onto drug-free solid media by broth dilution method; assay type: functional; settings: ATCC 6633, 18 h, read-out: MBC99.9

Structure (SMILES)	MBC
O=c1c2c(oc3ccc(F)cc13)-c1ccccc1OCCCO2	0.032 µM (≈ 0.00999 µg/mL)
O=c1c2c(oc3ccc(Cl)cc13)-c1ccccc1OCCCO2	0.075 µM (≈ 0.0247 µg/mL)
O=c1c2c(oc3ccc(Cl)cc13)-c1ccccc1OCCCCO2	0.024 µM (≈ 0.00823 µg/mL)
O=c1c2c(oc3ccc(F)cc13)-c1ccccc1OCCCCCO2	0.039 µM (≈ 0.0133 µg/mL)
O=c1c2c(oc3ccccc13)-c1ccccc1OCCCCCO2	0.159 µM (≈ 0.0513 µg/mL)

system: Klebsiella pneumoniae; assay: Antimicrobial activity against Klebsiella pneumoniae ATCC 10031 assessed as inhibition of microbial growth incubated for 24 hrs by broth dilution method; assay type: functional; settings: ATCC 10031, 24 h

Structure (SMILES)	MIC
O=c1c2c(oc3ccc(F)cc13)-c1ccccc1OCCCO2	0.112 µM
O=c1c2c(oc3ccc(Cl)cc13)-c1ccccc1OCCCO2	0.106 µM
O=c1c2c(oc3ccc(F)cc13)-c1ccccc1OCCCCCO2	0.088 µM

The next lines start with the values.

MIC	Structure (SMILES)
0.077 µM	O=c1c2c(oc3ccccc13)-c1ccccc1OCCCCCO2
0.146 µM	O=c1c2c(oc3ccc(Cl)cc13)-c1ccccc1OCCCCO2

system: Candida albicans; assay: Antimicrobial activity against Candida albicans ATCC 10231 assessed as inhibition of microbial growth incubated for 72 hrs by broth dilution method; assay type: functional; settings: ATCC 10231, 72 h

Structure (SMILES)	MIC
O=c1c2c(oc3ccc(F)cc13)-c1ccccc1OCCCO2	> 0.641 µM
O=c1c2c(oc3ccc(Cl)cc13)-c1ccccc1OCCCO2	> 0.609 µM
O=c1c2c(oc3ccc(F)cc13)-c1ccccc1OCCCCCO2	> 0.588 µM

Continued, values first:

MIC	Structure (SMILES)
> 0.621 µM	O=c1c2c(oc3ccccc13)-c1ccccc1OCCCCCO2
> 0.584 µM	O=c1c2c(oc3ccc(Cl)cc13)-c1ccccc1OCCCCO2

system: Bacillus subtilis; assay: Antimicrobial activity against Bacillus subtilis ATCC 6633 assessed as inhibition of microbial growth incubated for 24 hrs by broth dilution method; assay type: functional; settings: ATCC 6633, 24 h

Structure (SMILES)	MIC
O=c1c2c(oc3ccc(F)cc13)-c1ccccc1OCCCO2	0.081 µM
O=c1c2c(oc3ccc(Cl)cc13)-c1ccccc1OCCCO2	0.077 µM
O=c1c2c(oc3ccc(F)cc13)-c1ccccc1OCCCCCO2	0.117 µM

Continued, values first:

MIC	Structure (SMILES)
0.186 µM	O=c1c2c(oc3ccccc13)-c1ccccc1OCCCCCO2
0.073 µM	O=c1c2c(oc3ccc(Cl)cc13)-c1ccccc1OCCCCO2
